Measurements as given in PubChem BioAssay (NCI).
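A five-concentration, 48-hour dose response in 96-well plates underlies each endpoint, interpolated linearly between surrounding concentrations. At the GI50, growth is halved. TGI: total growth inhibition.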

Columns and labels:
Assay in all cases: DTP human tumour cell line panel, 48 h
M14 melanoma = test system: M14 melanoma
A549 NSCLC = test system: A549 NSCLC
SR leukemia = test system: SR leukemia
DU-145 prostate = test system: DU-145 prostate
U251 CNS = test system: U251 CNS
OVCAR-3 ovarian = test system: OVCAR-3 ovarian
A498 renal = test system: A498 renal
SK-MEL-5 melanoma = test system: SK-MEL-5 melanoma
SNB-19 CNS = test system: SNB-19 CNS
MCF7 breast = test system: MCF7 breast
KM12 colon = test system: KM12 colon
NCI-H23 lung = test system: NCI-H23 lung
SF-268 CNS = test system: SF-268 CNS
OVCAR-5 ovarian = test system: OVCAR-5 ovarian
BT-549 breast = test system: BT-549 breast
PC-3 prostate = test system: PC-3 prostate
SF-539 CNS = test system: SF-539 CNS
HCC-2998 colon = test system: HCC-2998 colon
IGROV1 ovarian = test system: IGROV1 ovarian
ACHN renal = test system: ACHN renal
HCT-116 colon = test system: HCT-116 colon
MOLT-4 leukemia = test system: MOLT-4 leukemia
HS 578T breast = test system: HS 578T breast
LOX IMVI melanoma = test system: LOX IMVI melanoma
HOP-92 NSCLC = test system: HOP-92 NSCLC
NCI/ADR-RES ovarian = test system: NCI/ADR-RES ovarian
UO-31 renal = test system: UO-31 renal
HCT-15 colon = test system: HCT-15 colon
SK-OV-3 ovarian = test system: SK-OV-3 ovarian
HOP-62 NSCLC = test system: HOP-62 NSCLC
RPMI-8226 leukemia = test system: RPMI-8226 leukemia
SN12C renal = test system: SN12C renal
OVCAR-8 ovarian = test system: OVCAR-8 ovarian
MDA-MB-231 breast = test system: MDA-MB-231 breast
COLO 205 colon = test system: COLO 205 colon
K-562 leukemia = test system: K-562 leukemia
SNB-75 CNS = test system: SNB-75 CNS
HL-60(TB) leukemia = test system: HL-60(TB) leukemia
SW-620 colon = test system: SW-620 colon
T-47D breast = test system: T-47D breast
HT29 colon = test system: HT29 colon
RXF 393 renal = test system: RXF 393 renal
CCRF-CEM leukemia = test system: CCRF-CEM leukemia
SF-295 CNS = test system: SF-295 CNS
SK-MEL-2 melanoma = test system: SK-MEL-2 melanoma
EKVX NSCLC = test system: EKVX NSCLC
786-0 renal = test system: 786-0 renal
OVCAR-4 ovarian = test system: OVCAR-4 ovarian
SK-MEL-28 melanoma = test system: SK-MEL-28 melanoma
UACC-62 melanoma = test system: UACC-62 melanoma
NCI-H460 lung = test system: NCI-H460 lung
NCI-H522 lung = test system: NCI-H522 lung
MDA-MB-435 = test system: MDA-MB-435
NCI-H226 lung = test system: NCI-H226 lung
CAKI-1 renal = test system: CAKI-1 renal
MALME-3M melanoma = test system: MALME-3M melanoma
UACC-257 melanoma = test system: UACC-257 melanoma
TK-10 renal = test system: TK-10 renal

`COc1ccc(NC(=O)c2sc3nc4c(cc3c2N)CCCC4)cc1` showed a GI50 (M14 melanoma) of 0.254 µM, a TGI (M14 melanoma) of 1.28 µM and a GI50 (A549 NSCLC) of 1.18 µM. For the same compound, the TGI (A549 NSCLC) was > 100 µM, the GI50 (SR leukemia) was 0.3 µM and the TGI (SR leukemia) was 16.3 µM. For the same compound, the GI50 (DU-145 prostate) was 0.982 µM, the TGI (DU-145 prostate) was > 100 µM and the GI50 (U251 CNS) was 0.652 µM. For the same compound, the TGI (U251 CNS) was > 100 µM, the GI50 (OVCAR-3 ovarian) was 0.336 µM and the TGI (OVCAR-3 ovarian) was 3.19 µM. For the same compound, the GI50 (A498 renal) was 0.237 µM, the TGI (A498 renal) was 1.73 µM and the GI50 (SK-MEL-5 melanoma) was 0.355 µM. For the same compound, the TGI (SK-MEL-5 melanoma) was 11 µM, the GI50 (SNB-19 CNS) was 1.57 µM and the TGI (SNB-19 CNS) was > 100 µM. The GI50 (MCF7 breast) was 0.348 µM, the TGI (MCF7 breast) was > 100 µM and the GI50 (KM12 colon) was 0.612 µM. For the same compound, the TGI (KM12 colon) was 82.9 µM, the GI50 (NCI-H23 lung) was 2.55 µM and the TGI (NCI-H23 lung) was > 100 µM. For the same compound, the GI50 (SF-268 CNS) was 0.899 µM, the TGI (SF-268 CNS) was > 100 µM and the GI50 (OVCAR-5 ovarian) was 7.28 µM. For the same compound, the TGI (OVCAR-5 ovarian) was > 100 µM, the GI50 (BT-549 breast) was 0.41 µM and the TGI (BT-549 breast) was 13.9 µM. The GI50 (PC-3 prostate) was 0.822 µM, the TGI (PC-3 prostate) was > 100 µM and the GI50 (SF-539 CNS) was 0.372 µM. The TGI (SF-539 CNS) was 6.52 µM, the GI50 (HCC-2998 colon) was 3.6 µM and the TGI (HCC-2998 colon) was > 100 µM. The GI50 (IGROV1 ovarian) was 0.929 µM, the TGI (IGROV1 ovarian) was > 100 µM and the GI50 (ACHN renal) was 0.627 µM. The TGI (ACHN renal) was > 100 µM, the GI50 (HCT-116 colon) was 0.355 µM and the TGI (HCT-116 colon) was 11 µM. It also gave a GI50 (MOLT-4 leukemia) of 0.442 µM, a TGI (MOLT-4 leukemia) of 30.5 µM and a GI50 (HS 578T breast) of 0.567 µM. For the same compound, the TGI (HS 578T breast) was > 100 µM, the GI50 (LOX IMVI melanoma) was 0.686 µM and the TGI (LOX IMVI melanoma) was > 100 µM. It also gave a GI50 (HOP-92 NSCLC) of 10.6 µM, a TGI (HOP-92 NSCLC) of 76.3 µM and a GI50 (NCI/ADR-RES ovarian) of 0.384 µM. The TGI (NCI/ADR-RES ovarian) was 3.85 µM, the GI50 (UO-31 renal) was 0.795 µM and the TGI (UO-31 renal) was > 100 µM. The GI50 (HCT-15 colon) was 0.471 µM, the TGI (HCT-15 colon) was > 100 µM and the GI50 (SK-OV-3 ovarian) was 1.92 µM. For the same compound, the TGI (SK-OV-3 ovarian) was > 100 µM, the GI50 (HOP-62 NSCLC) was 0.752 µM and the TGI (HOP-62 NSCLC) was > 100 µM. For the same compound, the GI50 (RPMI-8226 leukemia) was 0.484 µM, the TGI (RPMI-8226 leukemia) was 12.1 µM and the GI50 (SN12C renal) was 1.43 µM. The TGI (SN12C renal) was > 100 µM, the GI50 (OVCAR-8 ovarian) was 2.38 µM and the TGI (OVCAR-8 ovarian) was > 100 µM. For the same compound, the GI50 (MDA-MB-231 breast) was 5.26 µM, the TGI (MDA-MB-231 breast) was > 100 µM and the GI50 (COLO 205 colon) was 0.876 µM. For the same compound, the TGI (COLO 205 colon) was 6.46 µM, the GI50 (K-562 leukemia) was 0.309 µM and the TGI (K-562 leukemia) was > 100 µM. It also gave a GI50 (SNB-75 CNS) of 0.342 µM, a TGI (SNB-75 CNS) of 11.6 µM and a GI50 (HL-60(TB) leukemia) of 0.252 µM. The TGI (HL-60(TB) leukemia) was 0.624 µM, the GI50 (SW-620 colon) was 0.429 µM and the TGI (SW-620 colon) was > 100 µM. It also gave a GI50 (T-47D breast) of 0.547 µM, a TGI (T-47D breast) of 96.9 µM and a GI50 (HT29 colon) of 0.345 µM. It also gave a TGI (HT29 colon) of 3.36 µM, a GI50 (RXF 393 renal) of 0.452 µM and a TGI (RXF 393 renal) of 4.72 µM. The GI50 (CCRF-CEM leukemia) was 0.322 µM, the TGI (CCRF-CEM leukemia) was > 100 µM and the GI50 (SF-295 CNS) was 0.314 µM. The TGI (SF-295 CNS) was 20.2 µM, the GI50 (SK-MEL-2 melanoma) was 0.369 µM and the TGI (SK-MEL-2 melanoma) was 4.69 µM. The GI50 (EKVX NSCLC) was 1.13 µM, the TGI (EKVX NSCLC) was > 100 µM and the GI50 (786-0 renal) was 0.36 µM. For the same compound, the TGI (786-0 renal) was 30.5 µM, the GI50 (OVCAR-4 ovarian) was 1.98 µM and the TGI (OVCAR-4 ovarian) was > 100 µM. For the same compound, the GI50 (SK-MEL-28 melanoma) was 15.2 µM, the TGI (SK-MEL-28 melanoma) was > 100 µM and the GI50 (UACC-62 melanoma) was 0.352 µM. For the same compound, the TGI (UACC-62 melanoma) was > 100 µM, the GI50 (NCI-H460 lung) was 0.543 µM and the TGI (NCI-H460 lung) was 19.8 µM. For the same compound, the GI50 (NCI-H522 lung) was 0.234 µM and the TGI (NCI-H522 lung) was 0.772 µM.
In the case of `COc1ccc(/C=C2\CCC(CNc3ccc(Br)cc3)C2=O)cc1` (stereo unspecified), the TGI (M14 melanoma) is reported as > 100 µM, the TGI (A549 NSCLC) is reported as > 100 µM and the TGI (MDA-MB-435) is reported as > 100 µM. For the same compound, the TGI (SR leukemia) was 87.2 µM, the TGI (DU-145 prostate) was > 100 µM and the TGI (U251 CNS) was > 100 µM. For the same compound, the TGI (OVCAR-3 ovarian) was > 100 µM, the TGI (A498 renal) was > 100 µM and the TGI (SK-MEL-5 melanoma) was > 100 µM. The TGI (SNB-19 CNS) was > 100 µM, the TGI (MCF7 breast) was > 100 µM and the TGI (KM12 colon) was > 100 µM. For the same compound, the TGI (NCI-H23 lung) was > 100 µM, the TGI (SF-268 CNS) was > 100 µM and the TGI (NCI-H226 lung) was > 100 µM. For the same compound, the TGI (OVCAR-5 ovarian) was > 100 µM, the TGI (BT-549 breast) was > 100 µM and the TGI (PC-3 prostate) was > 100 µM. For the same compound, the TGI (CAKI-1 renal) was > 100 µM, the TGI (HCC-2998 colon) was > 100 µM and the TGI (MALME-3M melanoma) was > 100 µM. The TGI (UACC-257 melanoma) was > 100 µM, the TGI (IGROV1 ovarian) was > 100 µM and the TGI (ACHN renal) was > 100 µM. For the same compound, the TGI (MOLT-4 leukemia) was > 100 µM, the TGI (LOX IMVI melanoma) was > 100 µM and the TGI (HOP-92 NSCLC) was > 100 µM. For the same compound, the TGI (NCI/ADR-RES ovarian) was > 100 µM, the TGI (UO-31 renal) was > 100 µM and the TGI (HCT-15 colon) was > 100 µM. For the same compound, the TGI (SK-OV-3 ovarian) was > 100 µM, the TGI (HOP-62 NSCLC) was > 100 µM and the TGI (RPMI-8226 leukemia) was 33.3 µM. The TGI (SN12C renal) was > 100 µM, the TGI (OVCAR-8 ovarian) was > 100 µM and the TGI (MDA-MB-231 breast) was > 100 µM. The TGI (COLO 205 colon) was > 100 µM, the TGI (K-562 leukemia) was > 100 µM and the TGI (HL-60(TB) leukemia) was > 100 µM. The TGI (SW-620 colon) was > 100 µM, the TGI (T-47D breast) was > 100 µM and the TGI (HT29 colon) was > 100 µM. For the same compound, the TGI (RXF 393 renal) was > 100 µM, the TGI (CCRF-CEM leukemia) was > 100 µM and the TGI (SF-295 CNS) was > 100 µM. The TGI (EKVX NSCLC) was > 100 µM, the TGI (786-0 renal) was > 100 µM and the TGI (OVCAR-4 ovarian) was > 100 µM. For the same compound, the TGI (SK-MEL-28 melanoma) was > 100 µM, the TGI (UACC-62 melanoma) was > 100 µM and the TGI (NCI-H460 lung) was > 100 µM. For the same compound, the TGI (TK-10 renal) was > 100 µM.
